Reference: patent publication US7265152B2 (ViroPharma Incorporated, priority 2002, dated 2007)

Columns and labels:
[1] = target: T1, HCV NS5B (Hepatitis C virus genotype 1b, UniProt Q9WMX2); experiment: Inhibition of viral RNA-dependent RNA polymerase (RdRp), in vitro biochemical assay; set-up: species or system HCV genotype 1b virus (BB7); details: HCV NS5B RdRp, BB7; reported as range class; read-out: HCV pol-BB7 IC50
T1 construct: fusion protein, of which the carboxyl terminal 21 amino acids were removed to enhance its solubility; His tag (GSHHHHHH); made in house; host or cells: E. coli
Outline: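 Purified recombinant NS5B from a genotype 1b consensus (BB7), His-tagged, E. coli-expressed, with the C-terminal 21 residues deleted. Inhibition of RdRp activity in vitro was measured, and IC50 is the concentration giving 50% inhibition.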

[2] = system: HCV replicon (BB7 sequence) in Huh-7-Clone A cells; experiment: HCV replicon assay: ELISA of NS5A protein in replicon-containing cells (Inhibition of Viral RNA Replication); format: cell-based; details: Hepatitis C virus; HCV replicon, range of EC50; read-out: Replicon
Outline: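 Huh-7-Clone A cells carrying subgenomic BB7 HCV replicon (G418-selectable) incubated 72 h with compound. NS5A protein quantified by cell ELISA: glutaraldehyde fixation, anti-NS5A monoclonal plus HRP secondary, TMB read at OD 650 nm. EC50 derived from 8-point serial dilution dose curve.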

| SMILES | IC50 [1] [µM] | EC50 [2] [µM] |
| --- | --- | --- |
| CNC(=O)c1c(-c2ccc(F)cc2)oc2cc(N3CCOCC3)c(OCc3noc(-c4c(C)noc4C)n3)cc12 [Example 203, 5-[5-(3,5-Dimethyl-isoxazol-4-yl)-[1,2,4]oxadiazol-3-ylmethoxy]-2-(4-fluoro-phenyl)-6-morpholin-4-yl-benzofuran-3-carboxylic acid methylamide] | 0.5 to 5 | < 10 |
| CNC(=O)c1c(-c2ccc(F)cc2)oc2cc(N3CCOCC3)c(OCc3noc(C(C)(C)C)n3)cc12 [Example 204, 5-(5-tert-Butyl-[1,2,4]oxadiazol-3-ylmethoxy)-2-(4-fluoro-phenyl)-6-morpholin-4-yl-benzofuran-3-carboxylic acid methylamide] | ≤ 0.5 | < 1 |
| CNC(=O)c1c(-c2ccc(F)cc2)oc2cc(-c3ncon3)c(OC(C)C)cc12 [Example 205, 2-(4-Fluoro-phenyl)-5-isopropoxy-6-[1,2,4]oxadiazol-3-yl-benzofuran-3-carboxylic acid methylamide] | ≤ 0.5 | < 1 |
| CNC(=O)c1c(-c2ccc(F)cc2)oc2cc(N3CCOCC3)c(OCc3nsc(Cl)n3)cc12 [Example 206, 5-(5-Chloro-[1,2,4]thiadiazol-3-ylmethoxy)-2-(4-fluoro-phenyl)-6-morpholin-4-yl-benzofuran-3-carboxylic acid methylamide] | 0.5 to 5 | < 1 |
| CNC(=O)c1c(-c2ccc(F)cc2)oc2cc(N3CCOCC3)c(OCc3nnc(-c4ccc(C)cc4)o3)cc12 [Example 207, 2-(4-Fluoro-phenyl)-6-morpholin-4-yl-5-(5-p-tolyl-[1,3,4]oxadiazol-2-ylmethoxy)-benzofuran-3-carboxylic acid methylamide] | 5 to 30 | < 10 |
| CNC(=O)c1c(-c2ccc(F)cc2)oc2cc(O)c(OC)cc12 [Example 208, 2-(4-Fluoro-phenyl)-6-hydroxy-5-methoxy-benzofuran-3-carboxylic acid methylamide] | 0.5 to 5 | < 30 |
| CNC(=O)c1c(-c2ccc(F)cc2)oc2cc(N3CCOCC3)c(OCc3nnnn3C)cc12 [Example 209, 2-(4-Fluoro-phenyl)-5-(1-methyl-1H-tetrazol-5-ylmethoxy)-6-morpholin-4-yl-benzofuran-3-carboxylic acid methylamide] | 0.5 to 5 | < 10 |
| CNC(=O)c1c(-c2ccc(F)cc2)oc2cc(N3CCOCC3)c(OCc3cccc(OC)c3)cc12 [Example 210, 2-(4-Fluoro-phenyl)-5-(3-methoxy-benzyloxy)-6-morpholin-4-yl-benzofuran-3-carboxylic acid methylamide] | ≤ 0.5 | < 1 |
| CNC(=O)c1c(-c2ccc(F)cc2)oc2cc(OCc3nnnn3C)c(OC)cc12 [Example 211, 2-(4-Fluoro-phenyl)-5-methoxy-6-(1-methyl-1H-tetrazol-5-ylmethoxy)-benzofuran-3-carboxylic acid methylamide] | ≤ 0.5 | < 1 |
| CNC(=O)c1c(-c2ccc(F)cc2)oc2cc(N3CCOCC3)c(OC(C)c3ccc(F)cc3)cc12 (stereo not drawn) [Example 212, 2-(4-Fluoro-phenyl)-5-[1-(4-fluoro-phenyl)-ethoxy]-6-morpholin-4-yl-benzofuran-3-carboxylic acid methylamide] | ≤ 0.5 | < 1 |
| CNC(=O)c1c(-c2ccc(F)cc2)oc2cc(N3CCOCC3)c(OCc3ccc(C#N)cc3)cc12 [Example 213, 5-(4-Cyano-benzyloxy)-2-(4-fluoro-phenyl)-6-morpholin-4-yl-benzofuran-3-carboxylic acid methylamide] | 0.5 to 5 | < 10 |
| CNC(=O)c1c(-c2ccc(F)cc2)oc2cc(N3CCOCC3)c(OCc3noc(-c4ccc(OC)cc4)n3)cc12 [Example 214, 2-(4-Fluoro-phenyl)-5-[5-(4-methoxy-phenyl)-[1,2,4]oxadiazol-3-ylmethoxy]-6-morpholin-4-yl-benzofuran-3-carboxylic acid methylamide] | 0.5 to 5 | < 1 |
| CNC(=O)c1c(-c2ccc(F)cc2)oc2cc(N3CCOCC3)c(OCC(C)=O)cc12 [Example 215, 2-(4-Fluoro-phenyl)-6-morpholin-4-yl-5-(2-oxo-propoxy)-benzofuran-3-carboxylic acid methylamide] | 0.5 to 5 | < 10 |
| CNC(=O)c1c(-c2ccc(F)cc2)oc2cc(N3CCOCC3)c(OCc3nccn3Cc3ccccc3)cc12 [Example 216, 5-(1-Benzyl-1H-imidazol-2-ylmethoxy)-2-(4-fluoro-phenyl)-6-morpholin-4-yl-benzofuran-3-carboxylic acid methylamide] | ≤ 0.5 | < 1 |
| CNC(=O)c1c(-c2ccc(F)cc2)oc2cc(N3CCOCC3)c(OCc3c(C)noc3C)cc12 [Example 217, 5-(3,5-Dimethyl-isoxazol-4-ylmethoxy)-2-(4-fluoro-phenyl)-6-morpholin-4-yl-benzofuran-3-carboxylic acid methylamide] | 0.5 to 5 | < 10 |
| CNC(=O)c1c(-c2ccc(F)cc2)oc2cc(N3CCOCC3)c(OCc3cc(C)on3)cc12 [Example 218, 2-(4-Fluoro-phenyl)-5-(5-methyl-isoxazol-3-ylmethoxy)-6-morpholin-4-yl-benzofuran-3-carboxylic acid methylamide] | ≤ 0.5 | < 1 |
| CNC(=O)c1c(-c2ccc(F)cc2)oc2cc(-c3nccs3)c(OC(C)C)cc12 [Example 219, 2-(4-Fluoro-phenyl)-5-isopropoxy-6-thiazol-2-yl-benzofuran-3-carboxylic acid methylamide] | ≤ 0.5 | < 10 |
| CNC(=O)c1c(-c2ccc(F)cc2)oc2cc(-c3ccc[nH]3)c(OC(C)C)cc12 [Example 220, 2-(4-Fluoro-phenyl)-5-isopropoxy-6-(1H-pyrrol-2-yl)-benzofuran-3-carboxylic acid methylamide] | ≤ 0.5 | < 10 |
| CNC(=O)c1c(-c2ccc(F)cc2)oc2cc(N(C(C)C)S(C)(=O)=O)c(OC)cc12 [Example 221, 2-(4-Fluoro-phenyl)-6-(isopropyl-methanesulfonyl-amino)-5-methoxy-benzofuran-3-carboxylic acid methylamide] | ≤ 0.5 | < 1 |
| CNC(=O)c1c(-c2ccc(F)cc2)oc2cc(C(C)O)c(OC(C)C)cc12 (stereo not drawn) [Example 222, 2-(4-Fluoro-phenyl)-6-(1-hydroxy-ethyl)-5-isopropoxy-benzofuran-3-carboxylic acid methylamide] | ≤ 0.5 | < 1 |
| CNC(=O)c1c(-c2ccc(F)cc2)oc2cc(CN3CCOCC3)c(OC(C)C)cc12 [Example 223, 2-(4-Fluoro-phenyl)-5-isopropoxy-6-morpholin-4-ylmethyl-benzofuran-3-carboxylic acid methylamide] | 5 to 30 | < 10 |
| CNC(=O)c1c(-c2ccc(F)cc2)oc2cc(CO)c(OC(C)C)cc12 [Example 224, 2-(4-Fluoro-phenyl)-6-hydroxymethyl-5-isopropoxy-benzofuran-3-carboxylic acid methylamide] | ≤ 0.5 | < 10 |
| CNC(=O)c1c(-c2ccc(F)cc2)oc2cc(N3CCOCC3)c(OCc3cnc[nH]3)cc12 [Example 225, 2-(4-Fluoro-phenyl)-5-(3H-imidazol-4-ylmethoxy)-6-morpholin-4-yl-benzofuran-3-carboxylic acid methylamide] | ≤ 0.5 | < 10 |
| CNC(=O)c1c(-c2ccc(F)cc2)oc2cc(N3CCOCC3)c(OCCOC)cc12 [Example 226, 2-(4-Fluoro-phenyl)-5-(2-methoxy-ethoxy)-6-morpholin-4-yl-benzofuran-3-carboxylic acid methylamide] | ≤ 0.5 | < 1 |
| CNC(=O)c1c(-c2ccc(F)cc2)oc2cc(-c3cncs3)c(OC(C)C)cc12 [Example 227, 2-(4-Fluoro-phenyl)-5-isopropoxy-6-thiazol-5-yl-benzofuran-3-carboxylic acid methylamide] | ≤ 0.5 | < 1 |
| CNC(=O)c1c(-c2ccc(F)cc2)oc2cc(N3CCOCC3)c(OCc3nn(C)cc3Cl)cc12 [Example 228, 5-(4-Chloro-1-methyl-1H-pyrazol-3-ylmethoxy)-2-(4-fluoro-phenyl)-6-morpholin-4-yl-benzofuran-3-carboxylic acid methylamide] | ≤ 0.5 | < 1 |
| CNC(=O)c1c(-c2ccc(F)cc2)oc2cc(N3CCOCC3)c(OC(C)C#N)cc12 (stereo not drawn) [Example 229, 5-(Cyano-methyl-methoxy)-2-(4-fluoro-phenyl)-6-morpholin-4-yl-benzofuran-3-carboxylic acid methylamide] | ≤ 0.5 | < 10 |
| CNC(=O)c1c(-c2ccc(F)cc2)oc2cc(-c3ccn[nH]3)c(OC(C)C)cc12 [Example 230, 2-(4-Fluoro-phenyl)-5-isopropoxy-6-(2H-pyrazol-3-yl)-benzofuran-3-carboxylic acid methylamide] | ≤ 0.5 | < 10 |
| CNC(=O)c1c(-c2ccc(F)cc2)oc2cc(-c3ccnn3C)c(OC(C)C)cc12 [Example 231, 2-(4-Fluoro-phenyl)-5-isopropoxy-6-(2-methyl-2H-pyrazol-3-yl)-benzofuran-3-carboxylic acid methylamide] | ≤ 0.5 | < 1 |
| CNC(=O)c1c(-c2ccc(F)cc2)oc2cc(-c3ccn(C)n3)c(OC(C)C)cc12 [Example 232, 2-(4-Fluoro-phenyl)-5-isopropoxy-6-(1-methyl-1H-pyrazol-3-yl)-benzofuran-3-carboxylic acid methylamide] | 0.5 to 5 | < 10 |
